These results are taken from ChEMBL document CHEMBL5058642, “Data for DCP probe TP-051” (2022).

A value given as a limit tells only on which side of the number the result lay.

One data set has as its target D(4) dopamine receptor (Homo sapiens, UniProt P21917). Briefly: GPCRScan assay: inhibition of D4. The arrangement: radioligand conc. used [nm] 0.6 – 1.7, parental cells Stable HEK.
Data set [1] has as its target Alpha-1D adrenergic receptor (Homo sapiens, UniProt P25100). Briefly: GPCRScan assay: inhibition of Alpha1D. The arrangement: radioligand conc. used [nm] 0.3 – 1.0, parental cells stable.
In a further data set the target is MAO-A (Homo sapiens, UniProt P21397). Briefly: Inhibition of Monoamine Oxidase MAO-A at compound concentration of 10.0 uM in the Eurofins-Panlabs enzyme assay (Eurofins_assay_140010). The arrangement: substrate with concentration 50 uM Kynuramine, incubation time 60 min, incubation temperature 37 C. Conditions: recombinant human MAO-A expressed in insect Hi5 cells, probe Kynuramine, 50 uM, compound concentration 10 uM; call rule not given here.

Data set [2] has as its target Interstitial collagenase (Homo sapiens) (UniProt P03956). The experiment in a line: Inhibition of Peptidase, Matrix Metalloproteinase-1 (MMP-1) at 10 µM in the Eurofins-Panlabs enzyme assay (Eurofins_assay_114110). Conditions: Compound concentration 10.0 uM.
The target of data set [3] is Neprilysin (Homo sapiens) (UniProt P08473). The experiment in a line: Peptidase, Metalloproteinase, Neutral Endopeptidase Eurofins-Panlabs enzyme assay. The following applies: Compound concentration 10.0 uM.
Data set [4] is filed under the species Homo sapiens. Briefly: Protein Serine/Threonine Kinase, MAPK14 (p38α) Eurofins-Panlabs enzyme assay. The arrangement: substrate with concentration 10 µg/mL Myelin Basic Protein (MBP), incubation time 60 min, incubation temperature 25 °C. Conditions: Compound concentration 10.0 uM.
Data set [5] deals with Sodium-dependent serotonin transporter (Homo sapiens) (UniProt P31645). Briefly: Transporter, Serotonin (5- Hydroxytryptamine) (SERT) Eurofins-Panlabs radioligand binding assay. The arrangement: ligand concentration 0.15 nM, non-specific ligand with concentration 10 µM Imipramine, incubation time 3 h, incubation temperature 4 °C. The following applies: Compound concentration 10.0 uM.

Data set [6] has as its target Cannabinoid receptor 1 (Homo sapiens) (UniProt P21554). The experiment in a line: Inhibition of Cannabinoid CB1 at compound concentration of 10.0 uM in the Eurofins-Panlabs radioligand binding assay (Eurofins_assay_217050). Also noted: ligand concentration 2 nM. Conditions: Compound concentration 10.0 uM.
The target in data set [7] is Coagulation factor X (Homo sapiens) (UniProt P00742). Briefly: Peptidase, Factor Xa Eurofins-Panlabs enzyme assay. Also noted: substrate with concentration. The following applies: Compound concentration 10.0 uM.
In data set [8] the target is Matrilysin (Homo sapiens) (UniProt P09237). Briefly: Peptidase, Matrix Metalloproteinase-7 (MMP-7) Eurofins-Panlabs enzyme assay. The arrangement: substrate with concentration. Conditions: Compound concentration 10.0 uM.
The target of data set [9] is Collagenase 3 (Homo sapiens) (UniProt P45452). Briefly: Peptidase, Matrix Metalloproteinase-13 (MMP-13) Eurofins-Panlabs enzyme assay. The following applies: Compound concentration 10.0 uM. The arrangement: substrate with concentration.
Data set [10] concerns the target Matrix metalloproteinase-14 (Homo sapiens) (UniProt P50281). The experiment in a line: Peptidase, Matrix Metalloproteinase-14 (MMP-14) Eurofins-Panlabs enzyme assay. Also noted: substrate with concentration. Conditions: Compound concentration 10.0 uM.
The target in data set [11] is Phospholipase A2 (Sus scrofa) (UniProt A0A8D1VEY7). Briefly: Phospholipase PLA2-I Eurofins-Panlabs enzyme assay. The following applies: Compound concentration 10.0 uM. The arrangement: substrate with concentration.
In data set [12] the target is RAC-alpha serine/threonine-protein kinase (Homo sapiens) (UniProt P31749). The experiment in a line: Protein Serine/Threonine Kinase, PKBα/Akt1 Eurofins-Panlabs enzyme assay. Conditions: Compound concentration 10.0 uM.
The target in data set [13] is Receptor tyrosine-protein kinase erbB-2 (Homo sapiens) (UniProt P04626). The experiment in a line: Protein Tyrosine Kinase, ERBB2 (HER2) Eurofins-Panlabs enzyme assay. The following applies: Compound concentration 10.0 uM.
Data set [14] deals with 5-hydroxytryptamine receptor 2A (Homo sapiens) (UniProt P28223). The following applies: Compound concentration 10.0 uM.
The target of data set [15] is 5-hydroxytryptamine receptor 2C (Homo sapiens) (UniProt P28335). The following applies: Compound concentration 10.0 uM.
The target of data set [16] is 5-hydroxytryptamine receptor 6 (Homo sapiens) (UniProt P50406). The following applies: Compound concentration 10.0 uM.
Data set [17] concerns the target 5-hydroxytryptamine receptor 7 (Homo sapiens) (UniProt P34969). The following applies: Compound concentration 10.0 uM.
Data set [18] addresses T1, Muscarinic acetylcholine receptor M2 (Homo sapiens) (UniProt P08172).
T1 sequence (whole entry): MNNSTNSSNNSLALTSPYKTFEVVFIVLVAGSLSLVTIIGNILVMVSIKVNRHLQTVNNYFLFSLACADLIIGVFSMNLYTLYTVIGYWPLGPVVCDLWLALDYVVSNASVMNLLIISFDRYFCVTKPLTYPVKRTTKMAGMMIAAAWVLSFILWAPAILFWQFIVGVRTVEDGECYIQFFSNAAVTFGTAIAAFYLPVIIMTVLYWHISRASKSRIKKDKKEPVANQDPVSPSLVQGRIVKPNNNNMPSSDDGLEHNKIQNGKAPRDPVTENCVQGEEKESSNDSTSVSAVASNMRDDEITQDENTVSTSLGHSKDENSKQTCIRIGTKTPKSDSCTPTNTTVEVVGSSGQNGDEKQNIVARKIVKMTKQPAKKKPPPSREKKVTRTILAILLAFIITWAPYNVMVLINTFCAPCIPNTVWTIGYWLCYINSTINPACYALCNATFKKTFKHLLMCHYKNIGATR
Conditions: Compound concentration 10.0 uM.

The nature of data set [19]: GPCRScan assay: inhibition of GABA/PBR. The arrangement: species or system Rattus norvegicus; radioligand conc. used [nm] 0.3 – 2.0, parental cells brain tissue.
Data set [20] is filed under the species Homo sapiens. Briefly: Inhibition of Nicotinic Acetylcholine at compound concentration of 10.0 uM in the Eurofins-Panlabs radioligand binding assay (Eurofins_assay_258590). The format is protein-complex assay. Conditions: Compound concentration 10.0 uM.
A further data set is filed under the species Rattus norvegicus. Briefly: Serotonin (5-Hydroxytryptamine) 5-HT2, Non-Selective Eurofins-Panlabs radioligand binding assay. The class given is protein assay. The following applies: Compound concentration 10.0 uM.
Data set [21] addresses Neuromedin-K receptor (Homo sapiens) (UniProt P29371). The experiment in a line: Tachykinin NK3 Eurofins-Panlabs radioligand binding assay. The arrangement: ligand concentration 0.8 nM. Conditions: Compound concentration 10.0 uM.
Data set [22] has as its target Free fatty acid receptor 1 (Homo sapiens, UniProt O14842). The experiment in a line: FFAR1 binding assay.

As usually defined, the Ki is the equilibrium dissociation constant of an inhibitor or competing ligand from its target. As usually defined, the inhibition is the change of the read-out against control, counted positive when it falls. As usually defined, the pKi is the Ki on a negative log10 scale, so that one unit is a factor of ten.

Chain of Receptor tyrosine-protein kinase erbB-2 (Homo sapiens) (P04626 whole entry): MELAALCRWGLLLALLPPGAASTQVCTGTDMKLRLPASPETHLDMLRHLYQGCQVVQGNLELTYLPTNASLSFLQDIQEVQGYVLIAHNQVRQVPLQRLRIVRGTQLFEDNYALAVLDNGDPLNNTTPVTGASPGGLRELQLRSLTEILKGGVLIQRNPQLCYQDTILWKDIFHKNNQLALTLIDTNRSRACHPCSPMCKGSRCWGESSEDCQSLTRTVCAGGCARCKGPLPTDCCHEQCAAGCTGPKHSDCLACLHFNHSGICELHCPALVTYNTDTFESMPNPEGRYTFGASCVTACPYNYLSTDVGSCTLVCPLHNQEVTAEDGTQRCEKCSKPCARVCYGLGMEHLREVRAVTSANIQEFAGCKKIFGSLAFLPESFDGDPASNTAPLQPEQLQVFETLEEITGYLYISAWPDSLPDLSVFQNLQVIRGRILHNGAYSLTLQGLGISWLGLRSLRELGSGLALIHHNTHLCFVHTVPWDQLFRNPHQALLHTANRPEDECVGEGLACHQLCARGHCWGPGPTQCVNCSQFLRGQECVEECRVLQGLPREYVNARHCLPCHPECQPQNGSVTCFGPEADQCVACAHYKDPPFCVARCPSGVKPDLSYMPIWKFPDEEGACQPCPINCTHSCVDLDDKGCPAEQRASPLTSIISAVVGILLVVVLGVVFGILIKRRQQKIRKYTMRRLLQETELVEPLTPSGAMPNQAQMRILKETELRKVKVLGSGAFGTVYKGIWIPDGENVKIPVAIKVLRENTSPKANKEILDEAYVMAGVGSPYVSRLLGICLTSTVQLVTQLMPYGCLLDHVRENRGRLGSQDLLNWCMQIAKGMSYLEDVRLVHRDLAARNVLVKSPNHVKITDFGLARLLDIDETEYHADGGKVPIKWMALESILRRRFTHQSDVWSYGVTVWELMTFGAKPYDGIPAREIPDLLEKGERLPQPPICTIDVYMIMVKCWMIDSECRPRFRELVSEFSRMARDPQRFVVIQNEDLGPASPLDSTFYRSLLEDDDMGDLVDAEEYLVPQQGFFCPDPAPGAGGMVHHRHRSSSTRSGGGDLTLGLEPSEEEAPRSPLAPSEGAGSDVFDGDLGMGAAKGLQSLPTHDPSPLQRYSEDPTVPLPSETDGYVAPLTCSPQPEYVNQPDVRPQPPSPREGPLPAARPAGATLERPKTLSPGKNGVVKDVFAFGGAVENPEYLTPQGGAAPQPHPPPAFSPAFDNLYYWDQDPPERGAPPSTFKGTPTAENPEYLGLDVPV
Chain of Neprilysin (Homo sapiens) (P08473 whole entry): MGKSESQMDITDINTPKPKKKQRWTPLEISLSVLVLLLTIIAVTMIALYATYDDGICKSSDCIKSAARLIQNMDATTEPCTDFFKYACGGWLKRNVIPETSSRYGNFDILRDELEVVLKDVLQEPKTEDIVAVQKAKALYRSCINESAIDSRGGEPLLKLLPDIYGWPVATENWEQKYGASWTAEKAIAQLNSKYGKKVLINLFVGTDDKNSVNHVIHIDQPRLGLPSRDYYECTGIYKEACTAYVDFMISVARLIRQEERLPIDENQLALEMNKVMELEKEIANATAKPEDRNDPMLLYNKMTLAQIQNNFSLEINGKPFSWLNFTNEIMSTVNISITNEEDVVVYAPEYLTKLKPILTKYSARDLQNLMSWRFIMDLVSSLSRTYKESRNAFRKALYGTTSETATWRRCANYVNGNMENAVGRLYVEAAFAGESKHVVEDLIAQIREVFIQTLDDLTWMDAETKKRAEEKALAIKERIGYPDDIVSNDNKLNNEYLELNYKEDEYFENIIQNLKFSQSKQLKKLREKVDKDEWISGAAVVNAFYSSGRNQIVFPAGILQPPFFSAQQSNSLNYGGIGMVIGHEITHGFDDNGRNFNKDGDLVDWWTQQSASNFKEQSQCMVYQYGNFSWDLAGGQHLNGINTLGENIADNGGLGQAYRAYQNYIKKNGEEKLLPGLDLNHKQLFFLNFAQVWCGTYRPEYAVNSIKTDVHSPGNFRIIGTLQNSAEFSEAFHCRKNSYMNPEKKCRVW
Chain of Neuromedin-K receptor (Homo sapiens) (P29371 whole entry): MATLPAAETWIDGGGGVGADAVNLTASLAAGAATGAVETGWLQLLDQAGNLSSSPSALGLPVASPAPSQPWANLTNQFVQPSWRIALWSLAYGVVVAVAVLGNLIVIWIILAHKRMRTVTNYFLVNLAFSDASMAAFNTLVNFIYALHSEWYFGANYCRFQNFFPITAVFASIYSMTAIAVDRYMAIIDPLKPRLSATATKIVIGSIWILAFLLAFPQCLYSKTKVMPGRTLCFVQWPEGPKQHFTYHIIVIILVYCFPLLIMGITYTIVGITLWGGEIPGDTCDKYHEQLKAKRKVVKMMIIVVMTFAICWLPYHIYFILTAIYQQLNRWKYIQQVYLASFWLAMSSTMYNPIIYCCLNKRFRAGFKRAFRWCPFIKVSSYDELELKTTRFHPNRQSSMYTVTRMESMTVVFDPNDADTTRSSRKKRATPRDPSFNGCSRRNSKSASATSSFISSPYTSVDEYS
Chain of Coagulation factor X (Homo sapiens) (P00742 41-179 limits assumed): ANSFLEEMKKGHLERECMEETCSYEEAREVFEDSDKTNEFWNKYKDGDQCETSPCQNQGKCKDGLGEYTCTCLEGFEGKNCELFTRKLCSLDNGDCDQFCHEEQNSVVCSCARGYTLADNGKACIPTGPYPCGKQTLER
Chain of Coagulation factor X (Homo sapiens) (P00742 235-488 limits assumed): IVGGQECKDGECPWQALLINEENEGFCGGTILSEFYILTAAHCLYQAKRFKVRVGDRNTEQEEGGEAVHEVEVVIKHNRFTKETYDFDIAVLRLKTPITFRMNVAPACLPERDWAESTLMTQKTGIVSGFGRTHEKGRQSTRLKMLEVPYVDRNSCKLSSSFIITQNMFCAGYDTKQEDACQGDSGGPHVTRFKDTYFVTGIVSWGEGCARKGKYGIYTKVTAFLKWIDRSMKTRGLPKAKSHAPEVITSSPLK
Chain of 5-hydroxytryptamine receptor 2A (Homo sapiens) (P28223 whole entry): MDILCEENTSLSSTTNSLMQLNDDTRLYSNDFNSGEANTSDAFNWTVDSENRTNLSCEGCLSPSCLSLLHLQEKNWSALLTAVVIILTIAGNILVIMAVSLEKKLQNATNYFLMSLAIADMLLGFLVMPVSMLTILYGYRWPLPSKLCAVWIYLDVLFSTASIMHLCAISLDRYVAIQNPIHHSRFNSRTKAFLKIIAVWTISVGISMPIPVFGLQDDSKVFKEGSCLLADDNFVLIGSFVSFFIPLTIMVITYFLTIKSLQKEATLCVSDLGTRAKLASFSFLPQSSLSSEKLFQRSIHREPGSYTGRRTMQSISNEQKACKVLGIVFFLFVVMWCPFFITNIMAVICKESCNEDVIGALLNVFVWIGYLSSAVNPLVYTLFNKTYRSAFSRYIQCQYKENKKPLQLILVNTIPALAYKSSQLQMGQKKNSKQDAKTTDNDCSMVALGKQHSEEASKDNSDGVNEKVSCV
Chain of Interstitial collagenase (Homo sapiens) (P03956 whole entry): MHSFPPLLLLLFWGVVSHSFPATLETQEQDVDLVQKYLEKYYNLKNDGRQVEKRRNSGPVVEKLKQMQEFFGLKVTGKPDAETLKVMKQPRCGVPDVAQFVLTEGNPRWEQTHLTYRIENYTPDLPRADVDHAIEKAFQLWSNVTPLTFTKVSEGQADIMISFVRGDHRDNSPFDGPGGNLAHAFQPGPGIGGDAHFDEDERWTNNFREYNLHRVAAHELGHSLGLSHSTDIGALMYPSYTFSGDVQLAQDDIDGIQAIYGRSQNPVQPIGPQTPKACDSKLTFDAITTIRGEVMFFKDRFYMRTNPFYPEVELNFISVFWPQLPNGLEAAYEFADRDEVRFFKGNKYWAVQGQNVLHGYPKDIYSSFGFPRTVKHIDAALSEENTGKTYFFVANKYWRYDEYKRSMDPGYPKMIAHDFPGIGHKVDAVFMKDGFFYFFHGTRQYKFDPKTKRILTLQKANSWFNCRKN
Chain of Phospholipase A2 (Sus scrofa) (A0A8D1VEY7 as listed by the source): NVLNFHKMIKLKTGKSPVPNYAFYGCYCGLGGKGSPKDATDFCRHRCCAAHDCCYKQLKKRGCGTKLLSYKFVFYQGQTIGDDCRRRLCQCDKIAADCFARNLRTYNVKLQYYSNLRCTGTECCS
Chain of 5-hydroxytryptamine receptor 6 (Homo sapiens) (P50406 whole entry): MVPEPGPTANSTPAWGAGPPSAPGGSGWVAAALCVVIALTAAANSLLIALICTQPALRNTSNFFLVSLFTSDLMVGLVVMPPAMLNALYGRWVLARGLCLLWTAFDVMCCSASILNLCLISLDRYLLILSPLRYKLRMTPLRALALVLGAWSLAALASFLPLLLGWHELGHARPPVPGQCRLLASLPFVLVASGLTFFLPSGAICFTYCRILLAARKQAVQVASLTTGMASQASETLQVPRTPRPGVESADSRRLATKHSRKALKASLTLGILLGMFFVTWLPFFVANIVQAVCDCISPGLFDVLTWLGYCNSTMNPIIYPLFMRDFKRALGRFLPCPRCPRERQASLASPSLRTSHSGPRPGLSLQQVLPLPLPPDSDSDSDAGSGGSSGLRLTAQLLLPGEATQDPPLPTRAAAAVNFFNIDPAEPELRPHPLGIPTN
Chain of D(4) dopamine receptor (P21917 whole entry): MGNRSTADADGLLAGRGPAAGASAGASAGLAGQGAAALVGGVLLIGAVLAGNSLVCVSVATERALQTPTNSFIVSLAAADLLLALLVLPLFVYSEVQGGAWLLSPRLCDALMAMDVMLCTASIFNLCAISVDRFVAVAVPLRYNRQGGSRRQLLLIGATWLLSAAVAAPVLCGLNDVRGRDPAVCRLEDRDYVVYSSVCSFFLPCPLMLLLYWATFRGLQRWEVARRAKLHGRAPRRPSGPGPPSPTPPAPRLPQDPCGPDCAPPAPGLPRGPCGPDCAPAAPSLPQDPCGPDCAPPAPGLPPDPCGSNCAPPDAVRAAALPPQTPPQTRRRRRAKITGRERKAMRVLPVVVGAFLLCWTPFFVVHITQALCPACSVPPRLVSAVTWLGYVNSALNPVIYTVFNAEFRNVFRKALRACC

Turning to `Cc1cc(OC2CCS(=O)(=O)CC2)cc(C)c1-c1cccc(COc2ccc(CCC(=O)O)c(F)c2)c1`, the inhibitory constant (Ki) was 1230 nM at D(4) dopamine receptor and 7520 nM in data set [1]. The inhibition at 60 min, 10 µM at MAO-A is 7% (not active). The inhibition was 2% in data set [2]; 4% in data set [3]; 60% in the data set filed under Homo sapiens [4]; -5% in data set [5]; 8% in data set [6]; 2% in data set [7]. Also, the inhibition is 1% in data set [8]; 5% in data set [9]; 3% in [10]; 6% in [11]; -1% in [12]; -9% in data set [13]. Besides, the inhibition is 7.36% in data set [14]; 14.1% in [15]; -7.86% in [16]; 2.66% in data set [17]; 2.31% in data set [18].
As to `Cc1cc(OC2CCS(=O)(=O)CC2)cc(C)c1-c1cccc(COc2ccc(C(=O)O)c(F)c2)c1`, the Ki in data set [19] was 2750 nM; in data set [22], > 10000 nM (not active). For the same molecule, the negative-log Ki (pKi) in data set [19] is recorded as 5.56. For the same molecule, the inhibition in the data set filed under Homo sapiens [20] is -5%; in the data set filed under Rattus norvegicus, -3%; in data set [21], 10%.
